{"source": "patent US8481546B2", "about": "“CGRP receptor antagonist” (Bristol-Myers Squibb Company, priority 2010, dated 2013)", "key": {"[1]": {"assay": "One-week comparative intranasal irritation study in rats: toxicokinetics", "settings": "male, rat, in vivo; for Cmax / Tmax / AUC(0-t) / half-life: inhaled or intranasal; for concentration at 24 h: other: intranasal instillation", "procedure": "This study was conducted to compare potential nasal irritation of Compound I to Compound III when given intranasally to male rats for 1 week. Male rats (10/group) were instilled intranasally with Compound I or Compound III solutions ([…] in 225 mM succinic acid, 0.02% benzalkonium chloride, 1.25% anhydrous dextrose, pH 5.8-6.2) once daily at a dose volume of 100 μL/nostril. Using this dosing paradigm, fixed doses of 5, 15 or 35 mg of test article were delivered daily. As a consequence, dosages normalized to body weight decreased with time as the rats grew. One control group was given succinate vehicle and a sham control group was given saline by intranasal instillation. Parameters evaluated included clinical observations, body weight, food consumption, toxicokinetics, and histological evaluation of nasal tissues."}, "[2]": {"test_system": "olfactory epithelium (nasal turbinates)", "assay_type": "in vivo, rats", "description": "Compound I and Compound II were also compared directly for intranasal irritation. […] The only endpoint evaluated in this study was histological evaluation of the nasal turbinates."}, "[3]": {"test_system": "CGRP-induced increases in marmoset facial blood flow", "assay": "Marmoset facial blood flow", "assay_type": "in vivo, common marmosets (Callithrix jacchus)", "procedure": "To evaluate the in vivo efficacy of novel CGRP receptor antagonists, marmosets receive a series of four intravenous injections of hαCGRP (at 45 min intervals). The first serves as a baseline control, and is followed by subcutaneous delivery of test article. The subsequent three CGRP challenges provide an assessment of functional CGRP antagonism in vivo.\nAdult male and female common marmosets (Callithrix jacchus) weighing 350-650 g serve as subjects.\nAnimals are anesthetized by isoflurane inhalation in an induction chamber (4-5% rapid induction, maintained with 1-2.5%; Solomon et al., 1999). Anesthesia is maintained by delivering a constant supply of air:oxygen (50:50) and isoflurane via intubation and ventilation (with blood gas monitoring). Body temperature is maintained at 38±0.5° C. by placement on an automated temperature controlled surface with rectal probe. A small area of fur (approx. 1.5 cm square) is removed from one or both sides of the face by application of a depilatory cream and/or shaving. Surgical areas are clipped and prepared with betadine. An IV line is placed in the saphenous vein for the administration of test compounds and the CGRP receptor agonist hαCGRP. Additionally this IV line provides for withdrawal of blood samples (max 2.5 ml, 10%) for blood gas monitoring and analysis of compound plasma levels. A solution of 5% dextrose is administered IV in order to maintain blood sugar levels. Anesthesia depth is monitored by measuring blood pressure and heart rate using a non-invasive arm cuff method and a pulse oximeter, respectively. […] Microvascular blood flow is monitored by attaching a self adhesive laser Doppler flow probe to the facial skin. The probe records the number of red blood cells crossing the path of two laser beams, multiplied by their velocity (reported as changes in flux).\nTest compounds are administered SC (0.1-0.6 ml/kg) in the nape of the neck. The CGRP-receptor agonist, hαCGRP is delivered IV (1 ml/kg) at a dose of 10 μg/kg.\nTo assess in vivo efficacy and duration of action, a control increase in facial blood flow is induced by administration of hαCGRP (10 μg/kg IV) 30 min prior (−0.5 hr) to drug delivery. Compound I is then administered at time zero (0 min) and repeat hαCGRP are delivered at 45 min intervals for ˜2 hr (data collected at 0.25, 1 and 1.75 hrs post-dose). Compound I is dosed at 0.003, 0.01 and 0.03 mg/kg, SC. Plasma samples are obtained just before each hαCGRP administration. Following testing, animals are returned to the transport cage which is placed on a temperature controlled surface that keep the animals warm until fully awake and ambulatory. Animals may be tested again after a 14-21 day rest and washout period."}, "[4]": {"target": "T1, CGRP receptor (CGRP-stimulated cAMP production) (Homo sapiens, UniProt O60894+Q16602)", "T1 construct": "endogenous in cells; host or cells: SK-N-MC human neuroblastoma cells (membrane homogenate or attached whole cells)", "T1 sequence (Q16602 23-461)": "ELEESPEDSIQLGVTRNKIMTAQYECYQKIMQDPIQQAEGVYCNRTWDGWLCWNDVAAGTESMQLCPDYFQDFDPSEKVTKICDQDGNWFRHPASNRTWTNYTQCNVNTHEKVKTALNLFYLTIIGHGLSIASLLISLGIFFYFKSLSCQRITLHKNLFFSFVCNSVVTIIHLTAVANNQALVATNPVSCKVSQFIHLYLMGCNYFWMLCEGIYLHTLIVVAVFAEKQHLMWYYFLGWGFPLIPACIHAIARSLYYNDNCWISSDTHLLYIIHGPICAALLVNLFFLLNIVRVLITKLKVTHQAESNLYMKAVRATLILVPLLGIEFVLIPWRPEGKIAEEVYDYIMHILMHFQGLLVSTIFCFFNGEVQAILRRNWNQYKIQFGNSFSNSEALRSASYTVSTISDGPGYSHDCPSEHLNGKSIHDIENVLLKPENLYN", "T1 sequence (O60894 27-148)": "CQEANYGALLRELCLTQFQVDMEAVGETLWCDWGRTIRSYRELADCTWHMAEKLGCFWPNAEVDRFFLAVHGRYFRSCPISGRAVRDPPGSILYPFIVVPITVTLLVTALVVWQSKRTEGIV", "assay": "Schild analysis of CGRP-stimulated cAMP production", "assay_type": "cell-based", "procedure": "Schild analysis is used to characterize the nature of the antagonism of Compound I. The dose response of CGRP-stimulated cAMP production is generated either with CGRP alone, or with CGRP in the presence of various concentrations of Compound I. Specifically, dose-dependent cAMP stimulation by CGRP is assayed with or without five different concentrations of Compound I. The concentration of Compound I is plotted on the X-axis against the dose ratio minus 1 on the Y-axis (dose ratio is defined as the EC50 of CGRP in the presence of Compound I divided by the EC50 of CGRP alone). Linear regression is then performed with both X and Y axes log-transformed. […] Kb is the antagonist dissociation constant."}, "[5]": {"settings": "5 mg, intranasal 5 mg (0.357 mg/cm^2) once daily, Day 0"}, "[6]": {"settings": "5 mg, intranasal 5 mg (0.357 mg/cm^2) once daily, Day 6"}, "[7]": {"settings": "15 mg, intranasal 15 mg (1.07 mg/cm^2) once daily, Day 0"}, "[8]": {"settings": "15 mg, intranasal 15 mg (1.07 mg/cm^2) once daily, Day 6"}, "[9]": {"settings": "35 mg, intranasal 35 mg (2.50 mg/cm^2) once daily, Day 0"}, "[10]": {"settings": "35 mg, intranasal 35 mg (2.50 mg/cm^2) once daily, Day 6"}, "[11]": {"settings": "25 μL/nostril, 75 mg/ml, 3.75 mg/rat/day (0.268 mg/cm^2)"}, "[12]": {"settings": "25 μL/nostril, 175 mg/ml, 8.75 mg/rat/day (0.625 mg/cm^2)"}, "[13]": {"settings": "100 μL/nostril, 175 mg/ml, 35 mg/rat/day (2.500 mg/cm^2)"}, "[14]": {"settings": "marmoset, efficacy vs. exposure"}}, "note": "Read-outs that look alike come from different tables or passages of the source."}
{"smiles": "Cc1cc(C[C@@H](NC(=O)N2CCC(c3cc4ccccc4[nH]c3=O)CC2)C(=O)N2CCN(C3CCN(C)CC3)CC2)cc2cn[nH]c12", "note": "[Compound I, (R)—N-(3-(7-methyl-1H-indazol-5-yl)-1-(4-(1-methylpiperidin-4-yl)piperazin-1-yl)-1-oxopropan-2-yl)-4-(2-oxo-1,2-dihydroquinolin-3-yl)piperidine-1-carboxamide]", "values": [{"measurement": "Cmax", "setting": "[1]; [5]", "result": 330, "unit": "nM"}, {"measurement": "Tmax", "setting": "[1]; [5]", "result": 0.5, "unit": "h"}, {"measurement": "AUC(0-t)", "setting": "[1]; 5 mg, intranasal 5 mg (0.357 mg/cm^2) once daily, Day 0, read-out: Composite AUC0-24 h", "result": 1.6, "unit": "µM·h"}, {"measurement": "half-life", "setting": "[1]; 5 mg, intranasal 5 mg (0.357 mg/cm^2) once daily, Day 0, read-out: Mean T1/2 (converted)", "result": 7.1, "unit": "h"}, {"measurement": "Cmax", "setting": "[1]; [6]", "result": 660, "unit": "nM"}, {"measurement": "Tmax", "setting": "[1]; [6]", "result": 1, "unit": "h"}, {"measurement": "AUC(0-t)", "setting": "[1]; 5 mg, intranasal 5 mg (0.357 mg/cm^2) once daily, Day 6, read-out: Composite AUC0-24 h", "result": 2.6, "unit": "µM·h"}, {"measurement": "half-life", "setting": "[1]; 5 mg, intranasal 5 mg (0.357 mg/cm^2) once daily, Day 6, read-out: Mean T1/2 (converted)", "result": 5.6, "unit": "h"}, {"measurement": "Cmax", "setting": "[1]; [7]", "result": 2200, "unit": "nM"}, {"measurement": "Tmax", "setting": "[1]; [7]", "result": 1, "unit": "h"}, {"measurement": "AUC(0-t)", "setting": "[1]; 15 mg, intranasal 15 mg (1.07 mg/cm^2) once daily, Day 0, read-out: Composite AUC0-24 h", "result": 4.6, "unit": "µM·h"}, {"measurement": "half-life", "setting": "[1]; 15 mg, intranasal 15 mg (1.07 mg/cm^2) once daily, Day 0, read-out: Mean T1/2 (converted)", "result": 5.1, "unit": "h"}, {"measurement": "Cmax", "setting": "[1]; [8]", "result": 830, "unit": "nM"}, {"measurement": "Tmax", "setting": "[1]; [8]", "result": 0.5, "unit": "h"}, {"measurement": "AUC(0-t)", "setting": "[1]; 15 mg, intranasal 15 mg (1.07 mg/cm^2) once daily, Day 6, read-out: Composite AUC0-24 h", "result": 5.2, "unit": "µM·h"}, {"measurement": "half-life", "setting": "[1]; 15 mg, intranasal 15 mg (1.07 mg/cm^2) once daily, Day 6, read-out: Mean T1/2 (converted)", "result": 6.7, "unit": "h"}, {"measurement": "Cmax", "setting": "[1]; [9]", "result": 1500, "unit": "nM"}, {"measurement": "Tmax", "setting": "[1]; [9]", "result": 2, "unit": "h"}, {"measurement": "AUC(0-t)", "setting": "[1]; 35 mg, intranasal 35 mg (2.50 mg/cm^2) once daily, Day 0, read-out: Composite AUC0-24 h", "result": 7.9, "unit": "µM·h"}, {"measurement": "Cmax", "setting": "[1]; [10]", "result": 1200, "unit": "nM"}, {"measurement": "Tmax", "setting": "[1]; [10]", "result": 1, "unit": "h"}, {"measurement": "AUC(0-t)", "setting": "[1]; 35 mg, intranasal 35 mg (2.50 mg/cm^2) once daily, Day 6, read-out: Composite AUC0-24 h", "result": 5.4, "unit": "µM·h"}, {"measurement": "half-life", "setting": "[1]; 35 mg, intranasal 35 mg (2.50 mg/cm^2) once daily, Day 6, read-out: Mean T1/2 (converted)", "result": 6, "unit": "h"}, {"measurement": "concentration at 24 h", "setting": "[1]; 5 mg, intranasal 5 mg (0.357 mg/cm^2) once daily, Day 0, read-out: Mean C24 h", "result": 22, "unit": "nM"}, {"measurement": "concentration at 24 h", "setting": "[1]; 5 mg, intranasal 5 mg (0.357 mg/cm^2) once daily, Day 6, read-out: Mean C24 h", "result": 15, "unit": "nM"}, {"measurement": "concentration at 24 h", "setting": "[1]; 15 mg, intranasal 15 mg (1.07 mg/cm^2) once daily, Day 0, read-out: Mean C24 h", "result": 17, "unit": "nM"}, {"measurement": "concentration at 24 h", "setting": "[1]; 15 mg, intranasal 15 mg (1.07 mg/cm^2) once daily, Day 6, read-out: Mean C24 h", "result": 59, "unit": "nM"}, {"measurement": "concentration at 24 h", "setting": "[1]; 35 mg, intranasal 35 mg (2.50 mg/cm^2) once daily, Day 0, read-out: Mean C24 h", "result": 120, "unit": "nM"}, {"measurement": "concentration at 24 h", "setting": "[1]; 35 mg, intranasal 35 mg (2.50 mg/cm^2) once daily, Day 6, read-out: Mean C24 h", "result": 36, "unit": "nM"}, {"measurement": "Olfactory epithelial toxicity, number of animals with severity None", "setting": "[2]; 12.5 μL/nostril, 75 mg/ml, 1.875 mg/rat/day (0.134 mg/cm^2)", "result": 5}, {"measurement": "Olfactory epithelial toxicity, number of animals with severity None", "setting": "[2]; 12.5 μL/nostril, 175 mg/ml, 4.375 mg/rat/day (0.313 mg/cm^2)", "result": 5}, {"measurement": "Olfactory epithelial toxicity, number of animals with severity Minimal", "setting": "[2]; [11]", "result": 3}, {"measurement": "Olfactory epithelial toxicity, number of animals with severity None", "setting": "[2]; [11]", "result": 2}, {"measurement": "Olfactory epithelial toxicity, number of animals with severity Minimal", "setting": "[2]; [12]", "result": 1}, {"measurement": "Olfactory epithelial toxicity, number of animals with severity None", "setting": "[2]; [12]", "result": 4}, {"measurement": "Olfactory epithelial toxicity, number of animals with severity Slight", "setting": "[2]; 100 μL/nostril, 75 mg/ml, 15 mg/rat/day (1.071 mg/cm^2)", "result": 5}, {"measurement": "Olfactory epithelial toxicity, number of animals with severity Mild", "setting": "[2]; [13]", "result": 4}, {"measurement": "Olfactory epithelial toxicity, number of animals with severity Slight", "setting": "[2]; [13]", "result": 1}, {"measurement": "inhibition of CGRP-induced increases in facial blood flow", "setting": "[3]; 0.003 mg/kg SC, at 0.25 hr", "result": 20, "unit": "%"}, {"measurement": "inhibition of CGRP-induced increases in facial blood flow", "setting": "[3]; 0.003 mg/kg SC, later test times", "result": "no effect"}, {"measurement": "inhibition of CGRP-induced increases in facial blood flow", "setting": "[3]; 0.01 mg/kg SC, across all post-dose test times", "result": "35-40%"}, {"measurement": "inhibition of CGRP-induced increases in facial blood flow", "setting": "[3]; 0.03 mg/kg SC, at 0.25, 1 and 1.75 hr post-dose", "result": "53-80%"}, {"measurement": "plasma levels associated with maximal efficacy", "setting": "[3]; [14]", "result": "≥ 25", "unit": "nM"}, {"measurement": "plasma levels associated with significant in vivo efficacy", "setting": "[3]; [14]", "result": "≥ 8", "unit": "nM"}, {"measurement": "Schild analysis mean slope", "setting": "[4]", "result": "1.02±0.04"}, {"measurement": "Kb", "setting": "[4]; Schild analysis, read-out: mean antagonist dissociation constant Kb", "result": "0.0215 ± 0.0094", "unit": "nM"}]}
